Data published in ChEMBL document CHEMBL1201862, “PubChem BioAssay data set” (2004).
The source made the active and inactive calls. For most assays here, no stated cut-off is given here; in the data, actives have a measured IC50 and inactives only a lower limit.

Tests used:
[1] = molecular target: T1, Tyrosine-protein phosphatase non-receptor type 7 (Homo sapiens, UniProt P35236); assay type: functional
T1 sequence (P35236 whole entry): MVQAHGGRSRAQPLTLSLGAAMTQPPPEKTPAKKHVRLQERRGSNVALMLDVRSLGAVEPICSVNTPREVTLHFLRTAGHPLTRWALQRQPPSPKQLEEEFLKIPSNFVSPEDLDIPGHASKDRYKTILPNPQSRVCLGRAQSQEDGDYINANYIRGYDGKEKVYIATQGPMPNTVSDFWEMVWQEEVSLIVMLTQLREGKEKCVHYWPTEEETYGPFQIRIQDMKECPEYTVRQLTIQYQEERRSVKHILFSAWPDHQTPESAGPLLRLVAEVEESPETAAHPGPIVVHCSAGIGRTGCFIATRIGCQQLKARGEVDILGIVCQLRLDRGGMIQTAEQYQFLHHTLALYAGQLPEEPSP

[2] = molecular target: T2, Tyrosine-protein phosphatase non-receptor type 22 (Homo sapiens, UniProt Q9Y2R2); assay type: functional
T2 sequence (Q9Y2R2 whole entry): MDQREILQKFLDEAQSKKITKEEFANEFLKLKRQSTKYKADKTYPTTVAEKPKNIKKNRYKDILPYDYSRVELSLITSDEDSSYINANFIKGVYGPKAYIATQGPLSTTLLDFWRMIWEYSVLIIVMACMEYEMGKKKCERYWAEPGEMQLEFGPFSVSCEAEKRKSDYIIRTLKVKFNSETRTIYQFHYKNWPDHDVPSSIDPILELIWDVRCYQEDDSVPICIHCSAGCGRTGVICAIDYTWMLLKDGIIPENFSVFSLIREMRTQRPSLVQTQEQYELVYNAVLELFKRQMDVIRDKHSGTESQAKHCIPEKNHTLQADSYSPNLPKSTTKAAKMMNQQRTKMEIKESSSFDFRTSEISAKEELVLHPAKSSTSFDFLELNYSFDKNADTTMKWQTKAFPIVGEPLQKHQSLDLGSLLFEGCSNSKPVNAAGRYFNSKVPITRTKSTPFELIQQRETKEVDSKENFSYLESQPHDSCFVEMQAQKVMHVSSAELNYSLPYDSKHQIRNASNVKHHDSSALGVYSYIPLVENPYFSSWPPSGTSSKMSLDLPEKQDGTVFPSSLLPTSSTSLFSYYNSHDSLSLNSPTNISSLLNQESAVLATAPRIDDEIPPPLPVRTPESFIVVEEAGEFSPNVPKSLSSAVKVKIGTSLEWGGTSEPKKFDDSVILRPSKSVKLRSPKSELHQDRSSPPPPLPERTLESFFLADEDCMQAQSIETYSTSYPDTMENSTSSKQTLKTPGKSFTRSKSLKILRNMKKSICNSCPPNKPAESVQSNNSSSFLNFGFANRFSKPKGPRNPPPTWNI

[3] = molecular target: T2, Tyrosine-protein phosphatase non-receptor type 22; assay type: functional; remark: listed apart in the source
[4] = inhibitors of HIV Env-driven cell fusion, dose response, cherry-pick (AID 652057); assay type: functional, cell-based
[5] = ZM109 Env clade C HIV-1 fusion inhibitors, dose response, HeLa effector, CEM target cells, luciferase, cherry-pick (AID 652058); assay type: functional, cell-based
[6] = off-target signal loss in HeLa-CEM21 co-culture – HeLa F-luc CTL cells, cherry-picked, counter-screen for HIV-1 Env fusion inhibitor project, dose response (AID 652040); assay type: functional, cell-based;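 further: potency for signal decrease marking cytotoxic or nonspecific inhibition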
[7] = inhibitors of clade B AD8 Env fusion, dose response, cell-based, cherry-pick (AID 652062); assay type: functional;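 further: luciferase signal from cell-cell fusion driven by HIV-1 clade B AD8 Env; potency is for inhibitors of fusion seen as a drop in luminescence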
HEK293 [8] = test: cells; settings: Homo sapiens
HEK293 [9] = test: cells; settings: Homo sapiens; remark: listed apart in the source
[10] = molecular target: T3, E3 ubiquitin-protein ligase XIAP (Homo sapiens, UniProt P98170); test: Counter Screen using XIAP-Bir3 for Chemical Antagonists of Bir1/2 domains of IAP-family anti-apoptotic proteins. [Related pubchem assays (depositor defined):AID1018, AID1449, AID1514, AID1638, AID1749, AID1750, AID488957, AID488963]
[11] = molecular target: T3, E3 ubiquitin-protein ligase XIAP; test: XIAP antagonists, biochemical, IAP family, fluorescence polarization (AID 1018); assay type: functional
[12] = molecular target: T2, Tyrosine-protein phosphatase non-receptor type 22; test: SAR LYP1 Fluorescent Assay using pCAP substrate for In Vitro dose response studies - Set 2. [Related pubchem assays (depositor defined):AID1779, AID1784, AID2135, AID449727]; assay type: functional
[13] = molecular target: Tyrosine-protein phosphatase non-receptor type 12 (Homo sapiens, UniProt Q05209); test: SAR Selectivity Analysis of small molecule inhibitors of PEST using pCAP in a fluorescence assay. [Related pubchem assays (depositor defined):AID1779, AID1784, AID2135]; assay type: functional
[14] = molecular target: T2, Tyrosine-protein phosphatase non-receptor type 22; test: SAR LYP1 Fluorescent Assay using OMFP substrate for In Vitro dose response studies - Set 3. [Related pubchem assays (depositor defined):AID1779, AID1784, AID2140, AID2686]; assay type: functional
[15] = molecular target: T1, Tyrosine-protein phosphatase non-receptor type 7; test: HePTP (PTPN7) phosphatase inhibitor potency, SAR follow-up, biochemical, set 2 (AID 449736); assay type: functional
[16] = molecular target: T2, Tyrosine-protein phosphatase non-receptor type 22; test: LYP (PTPN22) phosphatase inhibitor potency, SAR follow-up, biochemical, pCAP fluorogenic substrate, fluorescence, set 3 (AID 449727); assay type: functional
[17] = molecular target: T2, Tyrosine-protein phosphatase non-receptor type 22; test: SAR LYP1 Fluorescent Assay using OMFP substrate for In Vitro dose response studies - Set 2. [Related pubchem assays (depositor defined):AID1779, AID1784, AID2140, AID449726, AID488869]; assay type: functional

T3 sequence (P98170 whole entry): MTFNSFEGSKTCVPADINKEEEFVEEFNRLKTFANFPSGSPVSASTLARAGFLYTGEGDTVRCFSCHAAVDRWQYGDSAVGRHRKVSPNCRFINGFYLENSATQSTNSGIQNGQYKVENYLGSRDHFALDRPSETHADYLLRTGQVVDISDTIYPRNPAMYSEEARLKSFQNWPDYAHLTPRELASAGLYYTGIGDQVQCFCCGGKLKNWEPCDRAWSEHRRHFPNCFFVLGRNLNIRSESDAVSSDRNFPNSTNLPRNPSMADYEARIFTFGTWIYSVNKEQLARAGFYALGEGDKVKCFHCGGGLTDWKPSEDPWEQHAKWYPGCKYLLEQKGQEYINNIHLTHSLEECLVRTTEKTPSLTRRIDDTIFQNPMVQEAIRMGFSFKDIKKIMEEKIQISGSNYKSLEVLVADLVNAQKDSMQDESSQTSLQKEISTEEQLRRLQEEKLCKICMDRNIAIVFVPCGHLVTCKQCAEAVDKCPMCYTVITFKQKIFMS
Chain of Tyrosine-protein phosphatase non-receptor type 12 (Q05209 whole entry): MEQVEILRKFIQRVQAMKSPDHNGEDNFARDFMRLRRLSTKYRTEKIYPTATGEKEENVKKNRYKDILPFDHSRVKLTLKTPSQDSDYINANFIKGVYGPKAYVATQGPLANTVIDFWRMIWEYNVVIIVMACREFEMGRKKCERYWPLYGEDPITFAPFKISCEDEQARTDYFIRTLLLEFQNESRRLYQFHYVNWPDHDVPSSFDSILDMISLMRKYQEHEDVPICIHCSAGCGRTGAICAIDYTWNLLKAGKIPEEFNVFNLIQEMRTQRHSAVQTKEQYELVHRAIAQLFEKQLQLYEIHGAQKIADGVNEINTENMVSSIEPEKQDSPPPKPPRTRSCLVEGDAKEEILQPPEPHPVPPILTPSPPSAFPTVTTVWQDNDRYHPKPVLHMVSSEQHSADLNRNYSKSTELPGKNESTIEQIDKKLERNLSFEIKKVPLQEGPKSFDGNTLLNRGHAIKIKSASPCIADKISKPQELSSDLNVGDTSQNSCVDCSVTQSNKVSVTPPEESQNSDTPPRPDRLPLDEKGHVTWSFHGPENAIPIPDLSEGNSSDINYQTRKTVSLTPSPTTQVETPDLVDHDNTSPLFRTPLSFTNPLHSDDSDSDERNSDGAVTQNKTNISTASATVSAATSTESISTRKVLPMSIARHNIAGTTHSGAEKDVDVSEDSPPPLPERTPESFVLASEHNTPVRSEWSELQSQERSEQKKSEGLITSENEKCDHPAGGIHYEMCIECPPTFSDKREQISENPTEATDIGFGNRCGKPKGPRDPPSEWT

With O=c1c(-c2ccccc2)c(O)c2c(n1-c1ccccc1)CCCC2 as the compound, how does the IC50 [1] read?
Its IC50 is > 79.4 µM (inactive).

What about the IC50 [2] of the same compound?
Its IC50 is > 79.4 µM (inactive).

And the IC50 [3]?
Its IC50 is > 79.4 µM (inactive).

For CCS(=O)(=O)N1Cc2ccccc2CC1C(=O)NCC12CC3CC(CC(C3)C1)C2 (configuration not stated), which AC50 [4] is on record?
Its AC50 is 4.37 µM (active).

And the AC50 [5]?
Its AC50 is 2.86 µM (active).

What about the AC50 [6] of the same compound?
The AC50 was 7.35 µM (active).

And the AC50 [7]?
Its AC50 is 19.8 µM (active).

And the EC50 (HEK293 [8])?
The EC50 was > 59.7 µM (inactive).

And the EC50 (HEK293 [9])?
Its EC50 is > 59.7 µM (inactive).

For COC(=O)c1ccc(C(=O)NC(=S)Nc2nc3c(s2)CCCC3)cc1, which IC50 [10] is on record?
The IC50 was > 100 µM (inactive).

And the IC50 [11]?
Its IC50 is > 100 µM (not active).

Which IC50 [12] does the source give for O=C(O)COc1ccc2c(c1)O/C(=C\c1cccs1)C2=O here?
Its IC50 is 81.2 µM (active).

And the IC50 [13]?
The IC50 was > 100 µM (inactive).

And the IC50 [14]?
Its IC50 is > 100 µM (inactive).

And the IC50 [15]?
The IC50 was > 100 µM (inactive).

What about the IC50 [16] of the same compound?
The IC50 was > 100 µM (inactive).

What about the IC50 [17] of the same compound?
The IC50 was > 100 µM (inactive).
